Earlier results on 8 molecules are cited in US20240197806A1, “EBELIN LACTONE OR BACOGENIN A1 ENRICHED COMPOSITION AND METHOD OF PREPARATION THEREOF” (priority 2022, published 2024).

For data set [1] the following is noted: Ramasamy et al., PLoS One 2015.
Another data set deals with 5-HT2A receptors (Homo sapiens, UniProt P28223). Conditions: read-out: Ki, binding to the 5-HT2A receptors.
For data set [2] the following is noted: Ramasamy et al., PLoS One 2015. This is another data set of the same source.

5-HT2A receptors, sequence (P28223 whole entry): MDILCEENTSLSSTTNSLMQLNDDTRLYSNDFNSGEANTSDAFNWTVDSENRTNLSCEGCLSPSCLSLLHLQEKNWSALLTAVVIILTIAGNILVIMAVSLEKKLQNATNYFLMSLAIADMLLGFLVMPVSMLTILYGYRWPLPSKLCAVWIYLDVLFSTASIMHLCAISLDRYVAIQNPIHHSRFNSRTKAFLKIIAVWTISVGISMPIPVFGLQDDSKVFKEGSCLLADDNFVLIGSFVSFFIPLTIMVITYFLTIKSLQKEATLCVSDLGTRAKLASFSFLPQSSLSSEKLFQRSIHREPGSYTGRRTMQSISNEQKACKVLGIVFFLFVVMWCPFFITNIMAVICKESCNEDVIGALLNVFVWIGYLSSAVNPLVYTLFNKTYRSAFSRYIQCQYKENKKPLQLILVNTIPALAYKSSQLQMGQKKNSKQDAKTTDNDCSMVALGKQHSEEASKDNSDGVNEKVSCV

As a reminder, the Ki is the dissociation constant of the complex between target and ligand, obtained from inhibition or displacement. In the case of `CC(C)=C/C=C/C(C)=C/C1CCC2[C@@]3(C)CC[C@H](O)C(C)(C)C3CC[C@@]2(C)[C@@]12COC(=O)C2` (stereo partly drawn) [ebelin lactone], in data set [1], the “ability to cross the blood brain barrier / blood brain barrier penetration” value is “very high”. For the same molecule, the Ki at 5-HT2A receptors is 4.21 µM. Turning to `CC(C)=C[C@H]1C[C@](C)(O)[C@H]2[C@H]3CC[C@@H]4[C@@]5(C)CC[C@H](O[C@@H]6O[C@H](CO)[C@@H](O)[C@H](O[C@@H]7O[C@H](CO)[C@@H](O)[C@H](O)[C@H]7O)[C@H]6O[C@@H]6O[C@@H](CO)[C@H](O)[C@H]6O)C(C)(C)[C@@H]5CC[C@@]4(C)[C@@]34CO[C@@]2(C4)O1` [bacoside A3], the “ability to cross the blood brain barrier / blood brain barrier penetration” value in data set [1] was “not able to cross”. In data set [2], the intestinal absorption entry was “poor”. `CC(C)=C[C@H]1C[C@](C)(O)[C@@H]2[C@H]3CC[C@@H]4[C@@]5(C)CC[C@H](O[C@@H]6OC[C@H](O)[C@H](O[C@@H]7O[C@H](CO)[C@@H](O)[C@H](O)[C@H]7O)[C@H]6O[C@@H]6O[C@@H](CO)[C@H](O)[C@H]6O)C(C)(C)[C@@H]5CC[C@@]4(C)[C@@]34CO[C@@]2(C4)O1` [bacopaside X]: the “ability to cross the blood brain barrier / blood brain barrier penetration” value in data set [1] is “not able to cross”. Further, the intestinal absorption result in data set [2] was “poor”. As to `CC(C)=CC1C[C@](C)(O)C2C3CCC4[C@@]5(C)CC[C@H](O)C(C)(C)C5CC[C@@]4(C)[C@]34CO[C@]2(C4)O1` (stereo partly drawn) [jujubogenin], the “ability to cross the blood brain barrier / blood brain barrier penetration” value in data set [1] is “able to cross”. The intestinal absorption entry in data set [2] was “good”. bacopaside II: the “ability to cross the blood brain barrier / blood brain barrier penetration” value in data set [1] is “not able to cross”. Also, in data set [2], the intestinal absorption result is “poor”. `CC1=CC(C)(C)O[C@@]1(C)C1C(=O)C[C@]2(CO)C1CCC1[C@@]3(C)CC[C@H](O)C(C)(C)C3CC[C@]12C` (stereo partly drawn) [bacogenin A1]: in data set [2], the intestinal absorption entry was “same absorption parameters as jujubogenin and pseudojujubogenin”. Consider `CC(C)=C[C@@H]1CO[C@]23C[C@]4(CO2)[C@H](CC[C@@H]2[C@@]5(C)CC[C@H](O[C@@H]6OC[C@H](O)[C@H](O[C@@H]7O[C@H](CO)[C@@H](O)[C@H](O)[C@H]7O)[C@H]6O[C@@H]6O[C@@H](CO)[C@H](O)[C@H]6O)C(C)(C)[C@@H]5CC[C@]24C)[C@H]3[C@@]1(C)O` [bacopasaponin C], for which the “ability to cross the blood brain barrier / blood brain barrier penetration” value in data set [1] was “not able to cross”. Also, in data set [2], the intestinal absorption entry is recorded as “poor”. `CC(C)=CC1COC23CC4(CO2)C(CCC2C5(C)CCC(O)C(C)(C)C5CCC24C)C3C1(C)O` (stereo not drawn) [pseudojujubogenin]: the “ability to cross the blood brain barrier / blood brain barrier penetration” value in data set [1] was “able to cross”. Further, the intestinal absorption entry in data set [2] is “good”.
